As usually defined, the IC50 is the midpoint of a concentration-inhibition curve. As a reminder, the thermodynamic solubility is solubility found after equilibrating the solid with the medium.

Converted amounts (≈) assume the structure as drawn.

Data set [1] concerns B16-F10. Briefly: Potentiation of antitumor activity against mouse B16-F10 cells allografted in C57BL/6 mouse model assessed as decrease in PD-L1 expression level in presence of 2-(5-chloro-2-(3-cyanobenzyloxy)-4-((2-methylbiphenyl-3-yl)methoxy)benzylamino)-2-methylpropanoic acid by Western blot analysis relative to control. In kind it is functional. Further details: scale not given: the % may be the effect or the level left. On the technique in general: In western blotting, separated proteins are transferred to a membrane and probed.

A short description of data set [2]: Toxicity in C57BL/6 mouse allografted with B16-F10 cells assessed as body weight loss at 10 mg/kg, ip administered daily for 14 days. Format: organism-based. To be noted: in vivo, 336 h, time 14 day.
Data set [3] deals with B16-F10. Put plainly: Antitumour activity against mouse B16-F10 cells allografted in C57BL/6 mouse model assessed as decrease in PD-L1 expression level by Western blot analysis relative to control. In kind it is functional. Further details: scale not given: the % may be the effect or the level left.
The subject of data set [4] is B16-F10. Briefly: Antitumour activity against mouse B16-F10 cells allografted in C57BL/6 mouse model assessed as increase in CD3 positive/CD4 positive cells in tumor at 10 mg/kg, ip administered for 14 days by flow cytometry analysis (Rvb= 8.73%). In kind it is functional. As to conditions: time 14 day. Background: Flow cytometry measures light scatter and fluorescence of single cells or particles in a stream.

Data set [5] has as its system B16-F10. Briefly: Antitumour activity against mouse B16-F10 cells allografted in C57BL/6 mouse model assessed as increase in CD3 positive/CD8 positive cells in tumor at 10 mg/kg, ip administered for 14 days by flow cytometry analysis (Rvb= 6.65%). Format: functional. As to conditions: time 14 day.
For another data set, the target named is Histone deacetylase 3 (Homo sapiens, UniProt O15379). Briefly: Inhibition of recombinant human His-tagged HDAC3 expressed in baculovirus insect cells using Ac-Leu-Gly-Lys (Ac)-AMC as substrate preincubated for 5 mins followed by substrate addition and measured after 30 mins by fluorescence microtiter plate reader assay.
A further data set addresses Histone deacetylase. Briefly: Inhibition of HDAC in human HeLa nuclear extracts using fluorometric substrate incubated for 30 mins by fluorescence plate reader analysis. In kind it is cell-based.
Another data set deals with HCT-116. Put plainly: cells. Format: functional, cell-based. As to conditions: Homo sapiens, HCT-116, 48 h.
The target of data set [6] is T1, Protein deacetylase HDAC6 (Homo sapiens, UniProt Q9UBN7).
T1 sequence (Q9UBN7 whole entry): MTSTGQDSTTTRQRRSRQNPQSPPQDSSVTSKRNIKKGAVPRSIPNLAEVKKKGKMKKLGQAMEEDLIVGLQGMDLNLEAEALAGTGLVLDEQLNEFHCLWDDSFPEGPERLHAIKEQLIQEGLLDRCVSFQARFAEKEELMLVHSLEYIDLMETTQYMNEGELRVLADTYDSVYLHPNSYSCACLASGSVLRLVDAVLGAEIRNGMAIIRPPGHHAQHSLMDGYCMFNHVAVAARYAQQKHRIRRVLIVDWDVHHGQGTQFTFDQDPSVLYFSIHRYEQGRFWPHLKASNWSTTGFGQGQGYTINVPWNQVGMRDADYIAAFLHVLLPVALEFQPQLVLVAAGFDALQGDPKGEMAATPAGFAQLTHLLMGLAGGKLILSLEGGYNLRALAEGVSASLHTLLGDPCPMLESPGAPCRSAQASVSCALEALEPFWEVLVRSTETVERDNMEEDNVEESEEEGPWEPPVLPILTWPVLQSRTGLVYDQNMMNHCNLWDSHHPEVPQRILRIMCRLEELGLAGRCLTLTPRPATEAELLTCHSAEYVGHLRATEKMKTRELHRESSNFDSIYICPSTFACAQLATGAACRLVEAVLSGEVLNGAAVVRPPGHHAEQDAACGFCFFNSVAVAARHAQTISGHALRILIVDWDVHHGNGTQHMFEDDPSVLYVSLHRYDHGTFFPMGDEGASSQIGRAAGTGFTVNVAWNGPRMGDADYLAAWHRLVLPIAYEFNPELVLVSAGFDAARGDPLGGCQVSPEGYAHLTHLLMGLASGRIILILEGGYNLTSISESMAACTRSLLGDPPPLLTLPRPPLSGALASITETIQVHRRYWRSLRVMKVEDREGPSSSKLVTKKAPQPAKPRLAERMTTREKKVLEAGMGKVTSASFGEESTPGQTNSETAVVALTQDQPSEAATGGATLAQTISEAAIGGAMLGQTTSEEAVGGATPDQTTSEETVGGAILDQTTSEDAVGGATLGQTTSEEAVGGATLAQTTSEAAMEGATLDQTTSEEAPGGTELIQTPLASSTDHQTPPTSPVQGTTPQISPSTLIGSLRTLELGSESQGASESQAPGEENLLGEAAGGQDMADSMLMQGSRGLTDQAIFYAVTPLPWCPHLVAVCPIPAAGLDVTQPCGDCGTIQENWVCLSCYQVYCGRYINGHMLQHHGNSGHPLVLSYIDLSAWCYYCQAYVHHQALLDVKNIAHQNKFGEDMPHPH
Briefly: Inhibition of recombinant human N-terminal GST tagged HDAC6 expressed in baculovirus infected Sf9 insect cells using Ac-Leu-Gly-Lys (Ac)-AMC as substrate preincubated for 5 mins followed by substrate addition and measured after 30 mins by fluorescence microtiter plate reader assay.

The nature of data set [7]: Antiproliferative activity against human YCC-11 cells assessed as cell growth inhibition. In kind it is functional, cell-based.
The subject of the next data set is MCF7. Briefly: cells. Format: functional, cell-based. As to conditions: Homo sapiens, MCF7, 48 h.
The target in another data set is Histone deacetylase 1 (Homo sapiens, UniProt Q13547). Put plainly: Inhibition of recombinant human HDAC1 expressed in baculovirus expression system using Ac-Leu-Gly-Lys (Ac)-AMC as substrate preincubated for 5 mins followed by substrate addition and measured after 30 mins by fluorescence microtiter plate reader assay.
Data set [8] deals with B16-F10. Put plainly: cells. In kind it is functional, cell-based. To be noted: Mus musculus, B16-F10, 48 h.
Description: Antiproliferative activity against mouse B16-F10 cells assessed as inhibition of cell proliferation measured after 48 hrs by MTT assay
Data set [9] in a line: Cytotoxicity against human Jurkat cells assessed as reduction in cell viability incubated for 72 hrs by CCK-8 assay. In general terms: Tetrazolium assays rely on reduction of a dye to a coloured formazan, in cell work by metabolically active cells.
Data set [10] is described as follows: Antiproliferative activity against human YCC3/7 cells assessed as cell growth inhibition. Format: functional, cell-based.
For a further data set, the system named is A549. Put plainly: cells. Format: functional, cell-based. As to conditions: Homo sapiens, A549, 48 h.
The target of the next data set is T2, Histone deacetylase 8 (Homo sapiens, UniProt Q9BY41).
T2 sequence (Q9BY41 whole entry): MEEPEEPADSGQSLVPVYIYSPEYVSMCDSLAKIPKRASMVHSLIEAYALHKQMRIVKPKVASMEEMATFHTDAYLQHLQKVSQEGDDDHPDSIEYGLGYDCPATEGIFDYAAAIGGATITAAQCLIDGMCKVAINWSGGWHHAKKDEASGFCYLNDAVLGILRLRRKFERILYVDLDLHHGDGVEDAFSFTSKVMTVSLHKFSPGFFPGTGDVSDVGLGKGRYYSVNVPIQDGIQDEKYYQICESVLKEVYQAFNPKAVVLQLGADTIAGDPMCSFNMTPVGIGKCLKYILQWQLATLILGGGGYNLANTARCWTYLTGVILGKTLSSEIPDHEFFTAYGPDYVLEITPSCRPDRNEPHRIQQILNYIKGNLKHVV
Put plainly: Inhibition of full length recombinant human C-terminal His tagged HDAC8 expressed in baculovirus infected Sf9 insect cells using Ac-Leu-GlyLys (Tfa)-AMC as substrate preincubated for 5 mins followed by substrate addition and measured after 30 mins by fluorescence microtiter plate reader assay.

Data set [11] deals with B16-F10. Briefly: Antitumour activity against mouse B16-F10 cells allografted in C57BL/6 mouse model assessed as increase in acetylated alpha tubulin expression level in tumor at 50 mg/kg, ip measured after 14 days by […] based microscopic analysis (Rvb =1.77%). To be noted: time 14 day. In kind it is functional.
Data set [12] in a line: Aqueous solubility of the compound incubated for 24 hrs by HPLC based shake-flask method. In kind it is physicochemical. As to conditions: buffer.
Data set [13] has as its system B16-F10. Put plainly: Antitumor activity against mouse B16-F10 cells allografted in C57BL/6 mouse assessed as tumor growth inhibition at 50 mg/kg, ip administered daily for 14 days by caliper method (Rvb= 63%). As to conditions: 336 h, time 14 day, read-out: TGI. Format: functional.
Data set [14] in a line: Toxicity in C57BL/6 mouse allografted with B16-F10 cells assessed as body weight loss at 50 mg/kg, ip administered daily for 14 days. Format: organism-based. As to conditions: in vivo, 336 h, time 14 day.

Histone deacetylase 1, sequence (Q13547 whole entry): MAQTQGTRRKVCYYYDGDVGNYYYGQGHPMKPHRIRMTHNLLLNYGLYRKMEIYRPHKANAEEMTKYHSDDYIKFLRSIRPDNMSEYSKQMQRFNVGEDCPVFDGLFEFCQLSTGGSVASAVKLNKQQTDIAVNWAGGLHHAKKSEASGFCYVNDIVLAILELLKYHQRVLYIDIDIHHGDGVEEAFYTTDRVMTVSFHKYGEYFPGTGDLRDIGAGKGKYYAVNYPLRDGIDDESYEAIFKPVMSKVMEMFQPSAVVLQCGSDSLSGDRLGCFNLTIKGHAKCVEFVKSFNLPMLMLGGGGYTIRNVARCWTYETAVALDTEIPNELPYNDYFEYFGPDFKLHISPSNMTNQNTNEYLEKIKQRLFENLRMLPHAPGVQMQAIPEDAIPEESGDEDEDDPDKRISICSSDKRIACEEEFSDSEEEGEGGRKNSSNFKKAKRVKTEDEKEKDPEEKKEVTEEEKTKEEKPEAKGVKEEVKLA
Histone deacetylase 3, sequence (O15379 whole entry): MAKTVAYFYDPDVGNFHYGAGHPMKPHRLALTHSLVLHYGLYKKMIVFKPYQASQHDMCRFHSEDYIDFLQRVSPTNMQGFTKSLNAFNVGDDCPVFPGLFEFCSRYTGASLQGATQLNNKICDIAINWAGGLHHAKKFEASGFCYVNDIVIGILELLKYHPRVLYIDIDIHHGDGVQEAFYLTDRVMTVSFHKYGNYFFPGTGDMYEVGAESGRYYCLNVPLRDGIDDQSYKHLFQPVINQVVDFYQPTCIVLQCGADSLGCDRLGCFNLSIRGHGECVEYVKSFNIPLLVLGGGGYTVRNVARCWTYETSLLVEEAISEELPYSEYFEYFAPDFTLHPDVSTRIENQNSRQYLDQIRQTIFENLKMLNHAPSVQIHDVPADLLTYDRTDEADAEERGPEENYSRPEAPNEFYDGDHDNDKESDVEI
Description for A549: Antiproliferative activity against human A549 cells assessed as inhibition of cell proliferation measured after 48 hrs by MTT assay
Description for HCT-116: Antiproliferative activity against human HCT-116 cells assessed as inhibition of cell proliferation measured after 48 hrs by MTT assay
Description for MCF7: Antiproliferative activity against human MCF7 cells assessed as inhibition of cell proliferation measured after 48 hrs by MTT assay

As for `Cc1c(COc2cc(OCc3cccc(C#N)c3)c(CNC(C)(C)C(=O)O)cc2Cl)cccc1-c1ccccc1`, the Activity is on record as 70% in the data set with B16-F10 [1]; “Non-Toxic” in [2]; 45% with B16-F10 [3]; 15.4% in the data set on B16-F10 [4]; 11.2% with B16-F10 [5].
For the molecule `COc1ccc(-c2ncc(/C=C/C(=O)NO)s2)cc1`, the IC50 on Histone deacetylase 3 is 5.11 µM; at Histone deacetylase, 0.13 µM; with HCT-116, 4.12 µM; in data set [6], 0.91 µM; in [7] it was 3.07 µM; in the data set with MCF7, 5.36 µM. The IC50 at Histone deacetylase 1 is 4.34 µM; in the data set on B16-F10 [8], over 10 µM; in data set [10], 4.21 µM; in the data set on A549 it was over 10 µM; at Histone deacetylase 8 it was 3.74 µM. Further, in [9], the IC50 at 72 h stood at 0.74 µM.
For the molecule `COc1cc(-c2ncc(/C=C/C(=O)NO)s2)cc(OC)c1OC`, the concentration for half-maximal inhibition (IC50) at Histone deacetylase 3 is 7.66 µM; against Histone deacetylase it was 0.1 µM; in the data set on HCT-116, 1.82 µM; in data set [6], 2.1 µM; in data set [7] it was 4.8 µM; in the data set on MCF7, 1.3 µM. The IC50 worked out at 3.21 µM at Histone deacetylase 1; 5.09 µM in the data set with B16-F10 [8]; 5.18 µM in data set [10]; 3.08 µM in the data set with A549; 2.22 µM at Histone deacetylase 8. The IC50 at 72 h in data set [9] was 0.36 µM.
As to `CC(C)(C)OC(=O)Nc1ccc(-c2ncc(C(=O)NCCCCCCC(=O)NO)s2)cc1`, the half-inhibitory concentration (IC50) on Histone deacetylase 3 is 5.88 µM; on Histone deacetylase, 0.29 µM; in the data set with HCT-116 it was 2.88 µM; in [6] it was 0.067 µM; in data set [7], 2.09 µM; in the data set on MCF7, over 10 µM. The IC50 at Histone deacetylase 1 is 9.32 µM; in the data set with B16-F10 [8], over 10 µM; in [10], 10.1 µM; with A549, over 10 µM; on Histone deacetylase 8, 5.22 µM. Besides, in [9], the IC50 at 72 h amounted to 1.34 µM.
For the molecule `COc1cccc(-c2ncc(/C=C/C(=O)Nc3ccccc3N)s2)c1`, the IC50 on Histone deacetylase 3 was 4.87 µM; at Histone deacetylase, 0.58 µM; in the data set with HCT-116 it was 3.91 µM; in data set [6], 9.53 µM; in data set [7], 8.56 µM; in the data set with MCF7, 6.05 µM. For the same molecule, the IC50 is 13.5 µM on Histone deacetylase 1; over 10 µM in the data set on B16-F10 [8]; 9.91 µM in data set [10]; 7.64 µM in the data set with A549; 13.4 µM at Histone deacetylase 8. Further, in data set [9], the IC50 at 72 h amounted to 0.56 µM.
As for `CC(C)(C)OC(=O)Nc1ccc(-c2cc(C(=O)NCCCCCCC(=O)NO)no2)cc1`, the IC50 at Histone deacetylase 3 was 0.76 µM; with HCT-116, 1.47 µM; in data set [7], 4.08 µM; in the data set with MCF7, 2.82 µM; at Histone deacetylase 1, 0.26 µM; with B16-F10 [8], 9.41 µM. Further, the IC50 in data set [10] was 6.25 µM; in the data set on A549, over 10 µM; on Histone deacetylase 8, 6.21 µM. In addition, the values for the Activity (with B16-F10 [11]; in data set [14]) were 37.9% and “Non-Toxic”, respectively. The molecule further registered a thermodynamic solubility at 24 h in data set [12] of 16.1 µg/mL (≈ 36 µM). For the same molecule, the inhibition in vivo at 50 mg/kg in the data set with B16-F10 [13] was determined as 52%. Moreover, the IC50 at 72 h in [9] was 0.61 µM.

The values above are taken from ChEMBL document CHEMBL5042524, “Discovery of Novel Histone Deacetylase 6 (HDAC6) Inhibitors with Enhanced Antitumor Immunity of Anti-PD-L1 Immunotherapy in Melanoma” (J Med Chem, 2022).
